{"source": "paper PMC2653189", "about": "(PLoS ONE, 2009)", "key": {"Stat3 [1]": {"biological_target": "T1, Stat3 (Homo sapiens, UniProt P40763)", "T1 sequence (P40763 whole entry, species assumed)": "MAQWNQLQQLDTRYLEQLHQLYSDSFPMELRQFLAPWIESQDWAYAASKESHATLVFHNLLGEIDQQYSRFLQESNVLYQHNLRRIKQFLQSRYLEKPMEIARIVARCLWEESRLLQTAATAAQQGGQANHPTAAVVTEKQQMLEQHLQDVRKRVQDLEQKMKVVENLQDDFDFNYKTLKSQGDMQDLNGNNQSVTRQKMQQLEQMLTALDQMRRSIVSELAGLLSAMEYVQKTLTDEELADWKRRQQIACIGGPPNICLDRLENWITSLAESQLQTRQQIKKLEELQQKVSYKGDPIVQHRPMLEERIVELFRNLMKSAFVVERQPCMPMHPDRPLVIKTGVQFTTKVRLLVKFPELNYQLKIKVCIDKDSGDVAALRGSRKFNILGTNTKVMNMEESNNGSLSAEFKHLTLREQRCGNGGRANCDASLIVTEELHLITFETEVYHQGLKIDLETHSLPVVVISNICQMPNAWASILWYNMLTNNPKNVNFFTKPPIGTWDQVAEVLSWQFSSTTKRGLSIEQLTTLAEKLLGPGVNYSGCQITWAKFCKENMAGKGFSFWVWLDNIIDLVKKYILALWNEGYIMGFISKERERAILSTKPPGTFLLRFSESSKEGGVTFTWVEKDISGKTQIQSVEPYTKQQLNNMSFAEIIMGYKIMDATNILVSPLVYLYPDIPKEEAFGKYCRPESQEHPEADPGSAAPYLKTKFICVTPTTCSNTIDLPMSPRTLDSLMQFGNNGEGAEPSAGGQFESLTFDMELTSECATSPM", "parameters": "method as in PMID 16220982", "details": "fluorescence polarization; read-out: IC50 inhibition of Stat3 binding to pY-peptide; cited from earlier work"}, "[2]": {"tested_on": "breast cancer cell lines tested", "test": "Apoptosis assay, all breast cancer cell lines tested", "assay_type": "cell-based, Human", "details": "any of the breast cancer cell lines tested; data not shown", "procedure": "Human breast carcinoma cell lines MDA-MB-468, MDA-MB-231, MBA-MD-435 and MCF7 were kindly provided by Dr. Powel H. Brown (Breast Cancer Center, Baylor College of Medicine). Breast cancer cell line, MDA-MB-453 was kindly provided by Dr. Shou Jiang (Breast Cancer Center, Baylor College of Medicine). All cell lines were grown in DMEM medium supplemented with 10% fetal bovine serum (FBS), 25,000 units penicillin G, 25,000 µg streptomycin, and 131.4 mg L-Glutamine and cultured in the incubator under the condition of 95% air, 5% CO2 at 37°C [33]. Cells were seeded at 2,500 cells/cm^2 into 12-well plates. At 80% confluency, cells were washed with PBS and supplemented with fresh medium containing compound or the topoisomerase I-inhibitor, camptothecin, at 0, 0.1, 0.3, 1, 3, 10, 30, 100, 300 µM. At 24 hours, treatment was terminated by removing the medium from each well. Cells were lysed with cell lysis buffer (600 µl for 30 minutes at 25°C). […] The percent maximum nucleosome level was calculated by dividing the nucleosome level by the maximum nucleosome level achieved in the assay and multiplying by 100. This value was plotted as a function of the log compound concentration and the best-fitting curve and EC50 value determined using 4-Parameter Logistic Model/Dose Response/XLfit 4.2, IDBS software."}, "[3]": {"tested_on": "IL-6-mediated Stat3 nuclear translocation (GFP-Stat3α)", "test": "HTFM nuclear translocation assay in MEF/GFP-Stat3α cells", "assay_type": "cell-based, murine", "details": "Mus musculus, compound 1 hour, then IL-6 200 ng/ml and IL-6sR 250 ng/ml 30 min, read-out: HTFM IC50, inhibition of IL-6-mediated Stat3 nuclear translocation", "procedure": "Confocal and high-throughput fluorescence microscopy (HTFM) of MEF/GFP-Stat3α cells were performed as described. Briefly, for confocal fluorescence microscopy, cells were grown in 6-well plates containing a cover slip. For HTFM, cells were seeded into 96-well CC3 plates at a density of 5,000 cells/well using an automated plating system. Cells were cultured under standard conditions until 85–90% confluent. Cells were pre-treated with compound for 1 hour at 37°C then stimulated with IL-6 (200 ng/ml) and IL-6sR (250 ng/ml) for 30 minutes to provide optimal Stat3 activation and nuclear translocation in these cells, as described. Cells were fixed with 4% formaldehyde in PEM Buffer (80 mM Potassium PIPES, pH 6.8, 5 mM EGTA pH 7.0, 2 mM MgCl2) for 30 minutes at 4°C, quenched in 1 mg/ml of NaBH4 (Sigma) in PEM buffer and counterstained for 1 min in 4,6-diamidino-2-phenylindole (DAPI; Sigma; 1 mg/ml) in PEM buffer. Cover slips were examined by confocal fluorescent microscopy. Plates were analyzed by automated HTFM using the Cell Lab IC Image Cytometer (IC100) platform and Cytoshop Version 2.1 analysis software (Beckman Coulter). Nuclear translocation is quantified by using the fraction localized in the nucleus (FLIN) measurement. FLIN values were normalized by subtracting the FLIN for unstimulated cells then dividing this difference by the maximum difference (delta, Δ) in FLIN (FLIN in cells stimulated with IL-6/sIL-6R in the absence of compound minus FLIN of unstimulated cells). This ratio was multiplied by 100 to obtain the percentage of maximum difference in FLIN and was plotted, where indicated, as a function of the log compound concentration. The best-fitting curve and IC50 value were determined using 4-Parameter Logistic Model/Dose Response/XLfit 4.2, IDBS software.\nFigure 4 Inhibition of cytoplasmic-to-nuclear translocation of Stat3 assessed by confocal and high-throughput fluorescence microscopy (HTFM). […] Coverslips were examined by confocal fluorescent microscopy using filters to detect GFP (column one), DAPI (column two) or both (merge; column three). In panel B, MEF-GFP-Stat3 cells were grown in 96-well plates with optical glass bottoms and pre-treated with the indicated compound at the indicated concentrations in quadruplicate for 1 hour then stimulated with IL-6 (200 ng/ml) and IL-6sR (250 ng/ml) for 30 minutes. Cells were fixed and the plates were examined by high-throughput microscopy to determine the fluorescence intensity in the nucleus (FLIN). The percent of maximum change (delta, Δ) in FLIN was calculated as described in the Methods and plotted as a function of the log of the compound concentration. […] Best-fit curves were determined using 4-Parameter Logistic Model/Dose Response/XLfit 4.2, IDBS software and were used to calculate the IC50 values (Table 2)."}, "Stat3 [4]": {"biological_target": "T1, Stat3", "test": "Stat3/pY-peptide binding assay (SPR, BIAcore)", "details": "recombinant Stat3 500 nM; immobilized EGFR Y1068 phosphododecapeptide; 25°C; read-out: SPR IC50, inhibition of Stat3 binding to pY peptide ligand", "procedure": "A control (Stat3 with DMSO but without compound) was run at the beginning and the end of each cycle (40 sample injections) to ensure that the integrity of the sensor chip was maintained throughout the cycle run. The average of the two controls was normalized to 100% and used to evaluate the effect of each compound on Stat3 binding. Responses were normalized by dividing the value at 2 min by the response obtained in the absence of compounds at 2 min and multiplying by 100."}, "[5]": {"tested_on": "IFN-γ-mediated Stat1 phosphorylation", "test": "Immunoblot of IFN-γ-mediated Stat1 phosphorylation in HepG2 cells", "assay_type": "cell-based, human", "details": "compound 300 µM 1 hour, IFN-γ 30 ng/ml 30 min", "procedure": "(§1) The human hepatocellular carcinoma cell line (HepG2) was grown in 6-well plates under standard conditions. Cells were pretreated with compounds (0, 1, 3, 10, 30, 100 and 300 µM) for 1 hour then stimulated under optimal conditions with either interleukin-6 (IL-6; 30 ng/ml for 30 min) to activate Stat3 or interferon gamma (IFN-γ; 30 ng/ml for 30 min) to activate Stat1 [28]. Cultures were then harvested and proteins extracted using high-salt buffer, as described. Briefly, extracts were mixed with 2× sodium dodecyl sulfate (SDS) sample buffer (125 mM Tris-HCL pH 6.8; 4% SDS; 20% glycerol; 10% 2-mercaptoethanol) at a 1∶1 ratio and heated for 5 minutes at 100°C. Proteins (20 µg) were separated by 7.5% SDS-PAGE and transferred to polyvinylidene fluoride (PVDF) membrane (Millipore, Waltham, MA) and immunoblotted. Prestained molecular weight markers (BioRad; Hercules, CA) were included in each gel. Membranes were probed serially with antibody against Stat1 pY701 or Stat3 pY705 followed by antibody against Stat1 or Stat3 (Transduction labs, Lexington, KY) then antibody against β–actin (Abcam, Cambridge, MA). Membranes were stripped between antibody probing using Restore™ Western Blot Stripping Buffer (Thermo Fisher Scientific Inc., Waltham, MA) per the manufacturer's instructions. Horseradish peroxidase-conjugated goat-anti-mouse IgG was used as the secondary antibody (Invitrogen Carlsbad, CA) and the membranes were developed with enhanced chemiluminescence (ECL) detection system (Amersham Life Sciences Inc.; Arlington Heights, IL.).\nFigure 2 Effect of compounds on ligand-mediated Stat3 and Stat1 phosphorylation. […] Cells were then stimulated with IL-6 (30 ng/ml) for 30 min. Protein extracts of cells were separated by SDS-PAGE, blotted and developed serially with antibodies to pStat3, total Stat3 and β-actin. Blots were stripped between each antibody probing. Band intensities were quantified by densitometry. The value of each pStat3 band was divided by its corresponding total Stat3 band intensity; the results were normalized to the DMSO-treated control value. This value was plotted as a function of the log compound concentration. The best-fitting curve was determined using 4-Parameter Logistic Model/Dose Response/XLfit 4.2, IDBS software and was used to calculate the IC50 value (Table 1). Each panel is representative of 3 or more experiments. In panel G, HepG2 cells were pretreated with DMSO alone or DMSO containing each of the compounds at a concentration of 300 µM for 60 min. Cells were then stimulated with IFN-γ (30 ng/ml) for 30 min. Protein extracts of cells were separated by SDS-PAGE and immunoblotted serially with antibodies to pStat1, total Stat1 and β-actin. Blots were stripped between each immunoblotting. The results shown are representative of 2 or more experiments."}, "[6]": {"tested_on": "IL-6-mediated phosphorylation of Stat3", "test": "Immunoblot of IL-6-mediated Stat3 phosphorylation in HepG2 cells", "assay_type": "cell-based", "details": "Homo sapiens, compound 60 min, then IL-6 30 ng/ml 30 min, read-out: pStat3 IC50, inhibition of IL-6-mediated Stat3 phosphorylation", "procedure": "as §1\nFigure 2 Effect of compounds on ligand-mediated Stat3 and Stat1 phosphorylation. […] Cells were then stimulated with IL-6 (30 ng/ml) for 30 min. Protein extracts of cells were separated by SDS-PAGE, blotted and developed serially with antibodies to pStat3, total Stat3 and β-actin. Blots were stripped between each antibody probing. Band intensities were quantified by densitometry. […] The best-fitting curve was determined using 4-Parameter Logistic Model/Dose Response/XLfit 4.2, IDBS software and was used to calculate the IC50 value (Table 1). […]"}, "MDA-MB-231 xenografts": {"tested_on": "MDA-MB-231 xenografts", "parameters": "method as in PMID 17463090", "details": "5 mg/kg every 2–3 days; cited from earlier work"}}, "note": "pIC50: −log10 of the molar value. Like-named read-outs stand apart in the source and are kept apart here.", "data": [{"molecule": "hydrocinnamoyl-Tyr(PO3H2)-Leu-cis-3,4-methanoPro-Gln-NHB", "values": [{"measurement": "pIC50", "setting": "Stat3 [1]", "result": 6.90}]}, {"molecule": "CCOc1cc(C=C2C(=O)c3ccccc3C2=O)cc(Cl)c1OCc1cccc(C(=O)O)c1", "note": "[Cpd3-2, 3-({2-chloro-4-[(1,3-dioxo-1,3-dihydro-2H-inden-2-ylidene)methyl]-6-ethoxyphenoxy}methyl)benzoic acid]", "values": [{"measurement": "Apoptosis induction (in words)", "setting": "[2]", "result": "neither Cpd3-2 nor Cpd3-7 induced apoptosis"}, {"measurement": "pIC50", "setting": "[3]", "result": 3.82}, {"measurement": "pIC50", "setting": "Stat3 [4]", "result": 3.59}, {"measurement": "Block of IFN-γ-stimulated Stat1 phosphorylation", "setting": "[5]", "result": "did not"}, {"measurement": "pIC50", "setting": "[6]", "result": 3.84}]}, {"molecule": "Cc1ccc(S(=O)(=O)OCC(=O)Nc2ccc(C(=O)O)c(O)c2)cc1", "note": "[S3I-201]", "values": [{"measurement": "Xenograft growth", "setting": "MDA-MB-231 xenografts", "result": "inhibited growth"}]}]}
